Laboratory results as given in patent US10071042B2, “External dermatological agent for anti-ageing” (Hayashibara Co., Ltd., priority 2014, dated 2018).
Marks after values point to notes of the source that are not given here.

Columns and labels:
endothelin-1 = assay: Endothelin-1 production after ultraviolet B irradiation, ELISA (Experiment 6); format: cell-based, human; conditions: for Production level of endothelin-1 (%): ultraviolet B 40 mJ/cm^2, control = 100%
Experimental: Normal human epidermal keratinocytes were proliferated to a confluent state at which the cells were grown over the entire bottom edge of each well of 96-well microplates by using “EpiLife”, a product name of a culture medium containing a growth factor for keratinocytes, commercialized by Life Technologies Corporation, CA, USA, and further cultured for another two days while replacing the medium with a fresh culture medium free of such a growth factor. Thereafter, the resulting cultures were added with sodium adenosine N1-oxide 5′-phosphate to give a concentration of 10, 20, or 50 μM, and allowed to stand for six hours. The cultured cells were washed with Hanks buffer, irradiated with ultraviolet B radiation at an intensity of 40 mJ/cm^2, and further cultured for 24 hours after the addition of a culture medium containing the growth factor. Endothelin-1 in the resulting supernatants was detected with an endothelin-1 specific ELISA kit, commercialized by R&D Systems Inc., MN, USA, colored with tetramethylbenzidine, and measured for absorbance at a wavelength of 450 nm. A control system was provided and similarly treated as above except for not adding sodium adenosine N1-oxide 5′-phosphate and then determined for the production level of endothelin-1 in the resulting culture supernatant to be regarded as 100%. The production level of endothelin-1 for each test substance was comparatively evaluated based on the following equation. Equation: Production level of endothelin-1 (relative value (%))=[(Absorbance of a sample with a test substance)/(Absorbance of control)]×100 The experiment was repeated three times, and the data was compared to that of control with the Dunnett's multiple comparisons test. The symbol “*” means a level of significance of p<0.01.

filaggrin protein = assay: Expression of filaggrin protein, Western blot filaggrin/actin (Experiment 3); format: cell-based, human; conditions: control = 100%
Experimental: Then, the expression of filaggrin was induced in such a manner of further culturing the cells for another four days, while replacing the culture medium with an EpiLife medium supplemented with 2 μM, 5 μM, or 10 μM of sodium adenosine N1-oxide 5′-phosphate every three days. […] After four days culture, the resultant cells were washed with Dulbecco's phosphate buffered saline, added with 0.1 mL of an SDS sample buffer (pH 6.8) containing 62.5 mM Tris-HCl, 2% SDS, 10% glycerol, and 50 mM DTT along with a protease inhibitor, and collected with a cell scraper. The collected cells were boiled for 10 min, disrupted ultrasonically, and quantified with “Pierce BCA Protein Assay Kit”, commercialized by ThermoFisher Scientific K. K., Yokohama, Japan. A prescribed amount of the resulting disrupted cells was sampled and subjected to SDS-polyacrylamide gel electrophoresis in an amount of 100 μg/lane, and the resulting gel was transferred to a PVDF membrane. The resulting transferred PVDF membrane was blocked with “Block Ace”, commercialized by DS Pharma Biomedical Co., Ltd., Osaka, Japan, reacted with a 200-fold dilution of “AKH1”, a mouse anti-filaggrin antibody, commercialized by, Santa Cruz Biotechnology Inc., CA, USA, or a 20,000-fold dilution of “MAB1501”, a mouse actin antibody, commercialized by Chemicon International Inc., MA, USA, as a first antibody, and then reacted with a 2,000-fold dilution of “P0447”, an HRP-labeled anti-mouse immunoglobulin, commercialized by Dako Japan, Tokyo, Japan, as a secondary antibody. After the reaction, by using ECL Plus Western Blotting Detection System, commercialized by GE Healthcare Japan, Tokyo, Japan, bands were detected on “Hyperfilm ECL”, a chemiluminescent film commercialized by GE Healthcare Japan, Tokyo, Japan. The detected bands were analyzed and quantified with “Image J”, an image analyzing software. A control system with no addition of any of the test substances was provided and the increasing intensity ratio of a band of filaggrin/actin was regarded as 100%, with which data for the increased percentages of the intensity ratios of bands of filaggrin/actin of the test substances were comparatively evaluated.

Nc1c2ncn([C@@H]3O[C@H](COP(=O)([O-])O)[C@@H](O)[C@H]3O)c2nc[n+]1[O-].[Na+] [Sodium adenosine N1-oxide 5′-phosphate, sodium adenosine N1-oxide 5′-phosphate]
Production level of endothelin-1 (%) (endothelin-1; 10 μM): 104.5%
Production level of endothelin-1 (%) (endothelin-1; 20 μM): 87.9%
production level of endothelin-1 reduced by (endothelin-1; 50 μM, compared to control): about 50%
Production level of endothelin-1 (%) (endothelin-1; 50 μM): 49.9* %
Relative expression level of filaggrin protein (%) (filaggrin protein; 2 μM): 133%
Relative expression level of filaggrin protein (%) (filaggrin protein; 5 μM): 206%
Relative expression level of filaggrin protein (%) (filaggrin protein; 10 μM): 308%
